The text below walks through data of patent US8507219B2, “Method of treating inflammation with statins” (MUSC Foundation for Research Development, priority 1997, dated 2013).

The conditions of data set [1]: human, in vivo.
The test system of data set [2] is IL-6 production in rat macrophages. The data set is described as follows: LPS-induced IL-6 production (ELISA) in rat macrophages. The format is cell-based. A general note: ELISA stands for enzyme-linked immunosorbent assay.
The subject of data set [3] is conversion of pro-p21^ras to mature-p21^ras. The settings on record: Sinensky et al., 1991; read-out: IC50 for inhibition of conversion of pro-p21^ras to mature-p21^ras; cited from earlier work.
For data set [4], the system named is astrocytes, microglia or macrophages. The source says: Cell viability Cytotoxic effects of the inhibitors were deter-mined by measuring the cell viability by Trypan blue exclusion.
Data set [5] is described as follows: Plasma very-long-chain fatty acids (C26:0) in X-ALD patients on lovastatin. Type of data set: in vivo, human.
Data set [6] relates to NOS activity in rat resident macrophages. The data set is described as follows: NOS activity (L-citrulline from L-arginine) in homogenates of treated rat resident macrophages. Type of data set: cell-based. The settings on record: for inhibition at 20000 µM: Rattus norvegicus, Macrophage. As to the method:
NOS activity was measured directly by production of L-[2,3,4,5-^3H]citrulline from L-[2,3,4,5-^3H] arginine (Feinstein et al., 1994a). […] Assays were carried out for 30 to 40 min and the production of L-[2,3,4,5-^3H] citrulline was linear. The reactions were stopped by addition of 800 μl of ice-cold 20 mM HEPES (pH 5.5) followed by addition of 2 ml of Dowex-50W equilibrated in the same buffer. The samples were then centrifuged and the concentration of L-[^3H]citrulline was determined in the supernatant by liquid scintillation counting.

Data set [7] deals with rat primary microglia, oligodendrocytes and C6 glial cells. Description: TNF-α-induced ceramide production in rat primary microglia, oligodendrocytes and C6 glial cells. Type of data set: cell-based. The note with it: 10 mM NAC 1 h, TNF-α 50 ng/ml.
The test system of data set [8] is intracellular GSH in rat primary astrocytes. The data set is described as follows: Intracellular GSH / GSSG in rat primary astrocytes. Type of data set: cell-based. The note with it: 10 mM NAC 1 h; TNF-α or IL-1β 50 ng/ml; diamide 0.5 mM. As to the method: Measurement of reduced glutathione (GSH) concentration in rat primary astrocytes Concentration of intracellular GSH was measured using a colorimetric assay kit for GSH from RandD, USA. Briefly, 2×10^6 cells were homogenized in 500 μl of ice-cold 5% metaphosphoric acid and centrifuged at 3000 g for 10 min. Supernatants were used to assay GSH using 4-chloro-1-methyl-7-trifluoromethyl-quinolinium methylsulfate and 30% NaOH at 400 nm.
Measurement of GSH (Reduced Glutathione) and GSSG Oxidized Glutathione Concentration of intracellular reduced GSH was measured using a calorimetric assay kit for GSH from R & D Systems. Briefly, 2×10^6 cells were homogenized in 500 μl of ice-cold 5% metaphosphoric acid and centrifuged at 3000×g for 10 min. Supernatants were used to assay GSH using 4-chloro-1-methyl-7-trifluoromethylquinolinium methylsulfate and 30% NaOH at 400 nm. Concentration of GSSG was determined according to the method of Griffith (1980) after derivatization with 2-vinylpyridine for 30 min at room temperature.

For data set [9], the system named is X-ALD fibroblasts.
Data set [10] concerns cholesterol synthesis in rat primary astrocytes.
The conditions of data set [11]: in vivo; cited from earlier work.
The mark [12] stands for this setting: individual X-ALD patients, lovastatin 20 then 40 mg per day.
Where [13] appears, read: IFN-γ 200 U/ml, NAC 20 mM 2 h before.
Setting [14] is: IL-1β 200 ng/ml, NAC 20 mM 2 h before.
Setting [15] is: LPS 0.2 μg/ml + IFN-γ 50 U/ml, NAC 20 mM 2 h before.
The mark [16] stands for this setting: LPS 0.2 μg/ml + IL-1β 25 ng/ml, NAC 20 mM 2 h before.
[17] abbreviates: LPS 0.2 μg/ml + TNF-α 20 ng/ml, NAC 20 mM 2 h before.
The mark [18] stands for this setting: LPS 1.0 μg/ml, NAC 20 mM 2 h before.
Setting [19] is: TNF-α 20 ng/ml + IFN-γ 50 U/ml, NAC 20 mM 2 h before.
Where [20] appears, read: TNF-α 20 ng/ml + IL-1β 25 ng/ml, NAC 20 mM 2 h before.
Where [21] appears, read: TNF-α 100 ng/ml, NAC 20 mM 2 h before.
The mark [22] stands for this setting: no stimulus (Control), NAC 20 mM.

Several values for one entry are separate records, joined by “and”; a condition that tells them apart may be missing. Equal values may be shown once. Entries after “also recorded” stand apart in the source; their conditions may differ. Read-outs that look alike come from different tables or passages of the source.

`CC[C@H](C)C(=O)O[C@H]1C[C@@H](C)C=C2C=C[C@H](C)[C@H](CC[C@@H]3C[C@@H](O)CC(=O)O3)[C@H]21` [Lovastatin]: in [1], the “adverse events leading to withdrawal” value was “persistent diarrhea and a marked elevation of serum creatine kinase levels”. For the same molecule, the “Production of IL-6” value in [2] (Macrophages, 10 μM lovastatin or 5 mM NaPA 8 h, then LPS 1.0 μg/ml, 24 h) was 8.3 ± 0.6 ng/24 h/mg protein. The IC50 in [3] was 2.6 µM. Besides, in data set [4], the “viability (trypan blue exclusion)” value is “had no effect on the viability of astrocytes, microglia, or macrophages”. Besides, the “viability (trypan blue exclusion)” value in data set [4] (rat) is on record as “none of the compounds lovastatin, mevastatin, NaPA, TNF-α, IL-1β, IFN-γ, or LPS had a significant effect on the viability”. In addition, the “plasma levels of very-long-chain fatty acids (C26:0), words” value in data set [5] (five patients who continued the treatment) is “remained low and within the normal range for up to six months”. For the same molecule, the “Plasma Very-Long-Chain Fatty Acids AT 1 MO” value in data set [5] (individual X-ALD patients (one line each), lovastatin 20 mg per day two weeks, then 40 mg per day, normal controls 0.24 ± 0.13) was 0.42 micrograms per milliliter and 0.37 micrograms per milliliter and 0.5 micrograms per milliliter and 0.43 micrograms per milliliter and 0.24 micrograms per milliliter and 0.3 micrograms per milliliter and 0.44 micrograms per milliliter. For the same molecule, in data set [5] (setting [12]), the “Plasma Very-Long-Chain Fatty Acids AT 2 MO” value was 0.41 micrograms per milliliter (2×) and 0.5 micrograms per milliliter and 0.42 micrograms per milliliter (2×) and 0.21 micrograms per milliliter and 0.34 micrograms per milliliter; the “Plasma Very-Long-Chain Fatty Acids AT 3 MO” value was 0.56 micrograms per milliliter and 0.3 micrograms per milliliter and 0.43 micrograms per milliliter and 0.21 micrograms per milliliter and 0.32 micrograms per milliliter and 0.36 micrograms per milliliter; the “Plasma Very-Long-Chain Fatty Acids AT 4 MO” value was 0.35 micrograms per milliliter and 0.34 micrograms per milliliter (2×) and 0.42 micrograms per milliliter and 0.22 micrograms per milliliter and 0.37 micrograms per milliliter; the “Plasma Very-Long-Chain Fatty Acids AT 5 MO” value was 0.17 micrograms per milliliter and 0.41 micrograms per milliliter (2×) and 0.26 micrograms per milliliter and 0.21 micrograms per milliliter. In addition, the “Plasma Very-Long-Chain Fatty Acids AT 6 MO” value in data set [5] (setting [12]) is 0.17 micrograms per milliliter (3×) and 0.16 micrograms per milliliter and 0.21 micrograms per milliliter.

Take `CC(=O)N[C@@H](CS)C(=O)O` [NAC, N-acetyl cysteine]: the “L-citrulline (NOS activity)” value amounted to 13.2 ± 2.4 pmol/min/mg in [6] (setting [13]); 12.9 ± 2.1 pmol/min/mg in data set [6] (setting [14]); 32.3 ± 4.6 pmol/min/mg in data set [6] (setting [15]); 44.9 ± 6.1 pmol/min/mg in data set [6] (setting [16]); 19.7 ± 2.7 pmol/min/mg in data set [6] (setting [17]); 14.2 ± 2.3 pmol/min/mg in [6] (setting [18]). The “L-citrulline (NOS activity)” value was 36.9 ± 3.4 pmol/min/mg in data set [6] (setting [19]), 28.2 ± 4.3 pmol/min/mg in data set [6] (setting [20]), 12.9 ± 2.3 pmol/min/mg in data set [6] (setting [21]) and 10.2 ± 0.9 pmol/min/mg in data set [6] (setting [22]). In addition, the “LPS-induced NOS activity, L-citrulline formation” value in data set [6] (LPS 1.0 μg/ml, 24 h) is “formation of L-citrulline was strongly inhibited; also recorded: inhibited LPS-induced NOS activity”. Moreover, the inhibition at 20000 µM was 90% in data set [6] (setting [13]); 43% in [6] (setting [14]); 83% in data set [6] (setting [15]); 78% in data set [6] (setting [16]); 91% in [6] (setting [17]); 91% in [6] (setting [18]). Besides, the inhibition at 20000 µM came out at 82% in data set [6] (setting [19]), 85% in [6] (setting [20]), 61% in data set [6] (setting [21]) and 25% in data set [6] (setting [22]). Further, the “TNF-α-induced production of ceramide” value in data set [7] is “potently blocked the TNF-α-induced production of ceramide in microglia, oligodendrocytes and C6 glial cells; also recorded: potently blocked the TNF-α-induced production of ceramide in microglia, oligodendrocytes, and C6 glial cells”. Besides, in [8], the “intracellular level of GSH / GSSG” value is “intracellular level of GSH did not decrease when cells were stimulated with cytokines in presence of NAC; also recorded: lack of decrease of GSH”.

For `O=C([O-])Cc1ccccc1.[Na+]` [NaPA, sodium salt of phenylacetic acid], the “Production of IL-6” value in data set [2] worked out at 10.2 ± 1.4 ng/24 h/mg protein. Further, the “cytotoxicity at higher doses” value in data set [9] was “cytotoxic to the X-ALD fibroblasts”. The “inhibition of the synthesis of cholesterol” value in [10] worked out at 64±5.3%. Moreover, in data set [11], the pharmacologically attainable concentration is 1 to 5 mM.

Usually IC50 stands for the concentration that inhibits the measured activity by half. Broadly, the inhibition is the relative decrease from the control value, in per cent.
